Assay results as given in patent US20070280946A1, “Antibody to 5' -Deoxy-5' - Methylthioadenosine And Uses Thereof” (priority 2004, published 2007).

Key:
spermidine synthase [1] = biological target: T1, spermidine synthase (Homo sapiens, UniProt P19623); experiment: Activity measurement of spermidine synthase by ELISA; type: biochemical; settings: measured by ELISA; read-out: IC50 value, inhibition of MTA production by SPDS
T1 construct: Human SPDS gene was amplified by PCR, inserted into an entry vector pENTR11; made in house; host or cells: HEK293 cells (transient transfection, Lipofectamine 2000)
T1 sequence (P19623 1-302): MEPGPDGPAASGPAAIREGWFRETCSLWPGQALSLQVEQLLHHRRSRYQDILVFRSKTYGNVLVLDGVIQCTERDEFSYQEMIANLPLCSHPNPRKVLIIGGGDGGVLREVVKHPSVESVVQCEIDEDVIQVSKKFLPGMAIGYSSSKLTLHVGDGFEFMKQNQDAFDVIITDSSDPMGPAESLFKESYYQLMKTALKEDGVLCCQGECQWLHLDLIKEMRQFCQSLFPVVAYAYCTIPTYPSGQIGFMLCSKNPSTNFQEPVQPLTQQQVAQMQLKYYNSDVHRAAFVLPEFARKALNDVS
Procedure: The amount of MTA in each well was calculated from the competitive curve described above, and the produced amount of MTA per an enzyme amount and a reaction time was determined to be defined as an enzyme activity. It was confirmed that a production amount of MTA was increased depending on a concentration of spermidine synthase and a reaction time. […] Pharma., 1991.). […] By detecting a production amount of MTA according to the present method, an inhibition effect of the test substance was measured.

spermidine synthase [2] = biological target: T1, spermidine synthase; experiment: Activity measurement of spermidine synthase by HTRF; type: biochemical; settings: measured by HTRF; read-out: IC50 value, inhibition of MTA production by SPDS
Procedure: 10 μL of spermidine synthase diluted with buffer C was added into 384-well assay plate (black, Corning). Then, to the plate was added 10 μl of the above substrate mixture, and reaction was conducted at room temperature. […] Then, each well was added with 20 μl of europium cryptate-labeled anti-MTA-7H8 antibody made to 288 ng/ml with buffer D, and the mixture was reacted for 16 hours at room temperature. Fluorescence of each well was measured by Rubyster (BMG Labtechnologis). An amount of MTA in each well was calculated from a standard curve, and converted to an amount of MTA per an enzyme amount and a reaction time, which was an enzyme activity. In FIG. 4, open circles represent reactivity to dcSAM and filled circles represent reactivity to MTA. […] It was confirmed that a production amount of MTA was increased depending on a concentration of spermidine synthase and a reaction time. […] By detecting a production amount of MTA according to the present method, an inhibition effect of the test substance was measured.

spermidine synthase [3] = settings: Shirahata et al., Biochem. Pharma., 1991; read-out: IC50 value in a publication; cited from earlier work
[4] = tested on: interaction of proteoglycan units with collagen; settings: column of Sepharose 4B-collagen loaded with proteoglycan subunits; cited from earlier work
[5] = biological target: T2, alkaline phosphatase produced from cartilage (Homo sapiens, UniProt P05186); settings: cited from earlier work
T2 sequence (P05186 18-501): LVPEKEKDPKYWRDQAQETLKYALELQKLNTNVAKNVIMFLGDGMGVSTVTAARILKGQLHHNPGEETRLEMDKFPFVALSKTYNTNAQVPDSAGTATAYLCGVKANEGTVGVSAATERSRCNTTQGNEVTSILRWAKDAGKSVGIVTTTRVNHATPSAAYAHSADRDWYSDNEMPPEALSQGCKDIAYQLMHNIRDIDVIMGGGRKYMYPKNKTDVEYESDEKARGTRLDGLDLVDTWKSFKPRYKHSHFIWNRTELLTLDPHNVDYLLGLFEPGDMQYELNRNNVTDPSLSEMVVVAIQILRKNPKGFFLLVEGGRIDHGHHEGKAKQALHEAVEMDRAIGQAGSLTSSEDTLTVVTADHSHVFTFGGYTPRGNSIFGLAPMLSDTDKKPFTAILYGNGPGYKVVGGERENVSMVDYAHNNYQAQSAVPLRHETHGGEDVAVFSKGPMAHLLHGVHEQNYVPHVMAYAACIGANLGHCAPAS

## CC1CCC(N)CC1 (stereo not drawn) [4-methylcyclohexylamine]
Spermidine synthase [1]
  IC50: 1000 nM
Spermidine synthase [2]
  IC50: 1100 nM
Spermidine synthase [3]
  IC50: 1700 nM

## NCCCCN [putrescine]
[4]
  capacity of displacing proteoglycan subunits from the column: without effect

## NCCCCNCCCN [spermidine]
[4]
  capacity of displacing proteoglycan subunits from the column: showed the capacity of displacing proteoglycan subunits
  proteoglycan subunits removed from the column: about 90%
[5]
  effect on activity of alkaline phosphatase produced from cartilage: increased the activity

## NCCCNCCCCNCCCN [spermine]
[4]
  capacity of displacing proteoglycan subunits from the column: without effect
[5]
  effect on activity of alkaline phosphatase produced from cartilage: increased the activity
